# Values of other authors in patent publication US20120308672A1, “COMPOSITIONS FOR HAIR AND BODY APPLICATION” (EQYSS GROOMING PRODUCTS, priority 2004, published 2012).
# Test system: mosquitoes
# Details: topical repellent
smiles,measurement,value
"CCN(CC)C(=O)c1cccc(C)c1 [DEET, N,N,-diethyl-m-toluamide]",protection against mosquitoes,effective and long-lasting protection
